# Entries after “also recorded” stand apart in the source; their conditions may differ.
# Tested on: A549 cells
# Assay: mitotic abnormalities by immunofluorescence
# Type: cell-based, human
# Conditions: 18 h or 24 h treatment, TSA 10 μM in FIG. 42C
# Procedure: Detection of acetylated α-tubulin and acetylated histones by immunofluorescence was performed as described in Example 6 above. For determining microtubule stability, A549 cells were treated as indicated, fixed in glutaraldehyde, and stained for acetylated α-tubulin and total α-tubulin in antibody dilution buffer (ADB, Tris-buffered saline (TBS), 0.15 M NaCl, 0.02 M Tris-Cl, pH 7.4, with 2% bovine serum albumin and 0.1% Triton-X 100). For cold-depolymerization, cells were incubated at 4° C. or 37° C. for an additional 90 minutes before fixation. For calcium depolymerization, cells were incubated at 37° C. for 10 minutes in a microtubule-stabilizing buffer (0.2% NP-40, 5 mM MgCl2, 2 mM EGTA, 2 M glycerol, 100 mM PIPES, pH 6.8) with and without the addition of CaCl2 (2 mM) before glutaraldehyde fixation. For co-localization experiments, biotubacin (50 μM) treated A549 cells were fixed in 3.7% formaldehyde in TBS and processed as for detecting acetylated α-tubulin (See Example 6 above) with biotubacin detected using streptavidin-TR (1:500). HDAC6 was detected using a rabbit polyclonal antibody (1:250-1:750; C.M.G., unpublished data) under the conditions used to detect acetylated α-tubulin (See Example 6 above). Filamentous actin in HT-1080 cells was detected using TR-conjugated phalloidin (1 μg/mL), and depolymerized actin using FITC-conjugated deoxyribonuclease (10 μg/mL), following fixation in 3.7% formaldehyde in TBS. p58 (1:100) in NIH-3T3 cells was detected after fixation in 3.7% formaldehyde in TBS. Images for these experiments were collected on a Zeiss LSM510 confocal scanning laser microscope at the appropriate wavelengths using the accompanying software and processed with Adobe Photoshop. Deconvoluted serial images of TSA and DMSO treated A549 cells were obtained by taking sections (8μ) on a Zeiss Axioskop 2 microscope using an AxioCam camera and the accompanying software. Rat hippocampal neuronal cultures were fixed at room temperature for 15 min in phosphate-buffered saline (PBS) containing 4% paraformaldehyde. […]
row,SMILES,mitotic abnormalities
1,"CC(/C=C/C(=O)NO)=C\[C@@H](C)C(=O)c1ccc(N(C)C)cc1 [TSA, trichostatin A, reference compound]",Mitotic abnormalities in A549 cells induced by TSA; also recorded: caused a significant number of abnormal mitotic cells
2,O=C(CCCCCCC(=O)Nc1ccc([C@@H]2OC(c3ccc(CO)cc3)C[C@H](CSc3nc(-c4ccccc4)c(-c4ccccc4)o3)O2)cc1)NO (some centres unmarked) [tubacin],did not increase the frequency of mitotic abnormalities; also recorded: had neither an effect on the number of mitotic cells nor spindle morphology

# From patent US8178579B2, “Dioxanes and uses thereof” (President and Fellows of Harvard College, priority 2001, dated 2012)
